Measured values reported in patent US5905068A, “Retroviral protease inhibiting compounds” (Abbott Laboratories, priority 1996, dated 1999).

How the values were obtained:
HIV-1 protease = HIV-1 protease (Human immunodeficiency virus type 1 group M subtype B, UniProt P04585); assay: Fluorogenic Assay for Screening Inhibitors of HIV Protease; settings: pH 4.5
Experimental: The inhibitory potency of the compounds of the invention were determined by the following method: The compound of the invention was dissolved in DMSO and a small aliquot further diluted with DMSO to 100 times the final concentration desired for testing. The reaction was carried out in a 6×50 mm tube in a total volume of 300 microliters. […] After addition of inhibitor, the reaction mixture was placed in the fluorometer cell holder and incubated at 30° C. for several minutes. The reaction was initiated by the addition of a small aliquot of cold HIV protease. The fluorescence intensity (excitation 340 nm, emission 490 nm) was recorded as a function of time. The reaction rate was determined for the first six to eight minutes. The observed rate was directly proportional to the moles of substrate cleaved per unit time. The percent inhibition was calculated according to the equation: 100×(1-(rate of inhibitor)/(rate in absence of inhibitor)). As a control, duplicate reactions were performed identically as above but without the addition of an inhibitor compound.

HIVIIIB = assay: Antiviral Activity: anti-HIV activity in MT4 cells infected with HIVIIIB (MTT); assay type: cell-based; settings: Human immunodeficiency virus 1, 120 h, MOI 0.003, 5 days, n=four duplicate determinations
Experimental: (§1) The anti-HIV activity of the compound of the invention was determined in MF4 cells according to the following procedure: MT4 cells were infected with cell-free supernatant of HIVIIIB (previously frozen with known 50% tissue culture infectious dose (TCID50) at 0.003 multiplicity of infection (MOI)) for one hour. After one hour infection, cells were washed twice to remove residual viruses, resuspended in culture media and seeded into 96-well tissue culture plates at 1×10^4 cells per well with various half-log dilutions of compounds. Uninfected cells were included a toxicity and cell controls. RPMI 1640 media (GIBCO) with 10% fetal bovine serum was used as culture media. Various concentrations (50%, 25% and 12.5%) of human serum (SIGMA) were added to culture media resulting in final concentrations of 60%, 35% and 22.5% total serum. All assay plates were incubated in a 37° C. incubator for 5 days. The compound 3-[4,5-dimethylthiozol-2-yl]-2,5-diphenyltetrazolium bromide (MTT, SIGMA, 5 mg .mL stock in PBS) was then added to all wells at 25 μL per well and incubated for 4 hours. SDS (20%) with 0.02N HCl in water was added at 50 μL per well to lyse cells. Plates were incubated overnight for complete cell lysis and then read on a microtiter plate reader at 570/650 nm wavelengths to determine cell optical density (O.D.). Raw data was analysed for percent inhibition by the following formula: [formula]
The 50% effective concentration (EC50) was calculated by the median effect equation (Chou, 1975, Proc. Int. Cong. Pharmacol. 6th p. 619) to determine the efficacy of compound. The 50% cytotoxicity concentration (CTC50) was calculated using uninfected MT4 cells
Under these conditions, the data of Table 2 was obtained (n=four duplicate determinations).

[1] = Cytotoxicity in uninfected MT4 cells (MTT); assay type: cell-based; settings: human, 5 days, n=four duplicate determinations, read-out: CTC50 (50% cytotoxicity concentration)
Experimental: as §1, with “RPMI 1640 media (GIBCO) with 10% fetal bovine serum was used as culture media. Various concentrations (50%, 25% and 12.5%) of human serum (SIGMA) were added to culture media resulting in final concentrations of 60%, 35% and 22.5% total serum.” left out, “The compound 3-[4,5-dimethylthiozol-2-yl]-2,5-diphenyltetrazolium bromide (MTT, SIGMA, 5 mg .mL stock in PBS) was then added to all wells at 25 μL per well and incubated for 4 hours.” left out
The 50% cytotoxicity concentration (CTC50) was calculated using uninfected MT4 cells

| SMILES | inhibition at 0.0005 µM (HIV-1 protease) [%] | EC50 (HIVIIIB) [nM] | CC50 at 120 h [1] [nM] | inhibition at 0.001 µM (HIV-1 protease) [%] |
| --- | --- | --- | --- | --- |
| Cc1ccc(N)c(C)c1OCC(=O)N[C@@H](Cc1ccccc1)C[C@H](O)[C@H](Cc1ccccc1)NC(=O)O[C@H]1CO[C@H]2OCC[C@H]21 [Example 16, (2S,3S,5S)-5-(2,6-Dimethyl-3-amino-phenoxyacetyl)amino-2-((3R,3aS,6aR)-bis-tetrahydrofuran-3-yl-oxycarbonyl)amino-1,6-diphenyl-3-hydroxyhexane] | 87 | < 32 | > 100000 | – |
| Cc1cc(N)cc(C)c1SCC(=O)N[C@@H](Cc1ccccc1)C[C@H](O)[C@H](Cc1ccccc1)NC(=O)O[C@H]1CO[C@H]2OCC[C@H]21 [Example 17, 5-(2,6-Dimethyl-4-amino-phenylthioacetyl)amino-2-((3R,3aS,6aR)-bis-tetrahydrofuran-3-yl-oxycarbonyl)amino-1,6-diphenyl-3-hydroxybexane] | – | 5790 | 56000 | 50 |
| O=C(N[C@@H](Cc1ccccc1)C[C@H](O)[C@H](Cc1ccccc1)NC(=O)O[C@H]1CO[C@H]2OCC[C@H]21)O[C@H]1CO[C@H]2OCC[C@H]21 [Example 20, (2S,3S,5S)-2,5-Di-((3R,3aS,6aR)-bis-Tetrahydrofuran-3-yl-oxycarbonyl)amino-1,6-diphenyl-3-hydroxyhexane] | 64 | 34 | > 100000 | – |
| O=C(N[C@@H](Cc1ccccc1)[C@@H](O)C[C@H](Cc1ccccc1)NC(=O)O[C@@H]1CO[C@@H]2OCC[C@@H]21)O[C@H]1CO[C@H]2OCC[C@H]21 [Example 22, (2S,3S,5S)-2-((3R,3aS,6aR)-bis-Tetrahydrofuran-3-yl-oxycarbonyl)amino-5-((3S,3aR,6aS)-bis-Tetrahydrofuran-3-yl-oxycarbonyl)amino-1,6-diphenyl-3-hydroxyhexane] | 73 | 107 | > 100000 | – |
| O=C(N[C@@H](Cc1ccccc1)C[C@H](O)[C@H](Cc1ccccc1)NC(=O)O[C@@H]1CO[C@@H]2OCC[C@@H]21)O[C@H]1CO[C@H]2OCC[C@H]21 [Example 23, (2S,3S,5S)-2-((3S,3aR,6aS)-bis-tetrahydrofuran-3-yl-oxycarbonyl)amino-5-((3R,3aS,6aR)-bis-tetrahydrofuran-3-yl-oxycarbonyl)amino-1,6-diphenyl-3-hydroxyhexane] | 39 | 891 | > 100000 | – |
| Cc1cc2[nH]cnc2c(C)c1OCC(=O)N[C@@H](Cc1ccccc1)C[C@H](O)[C@H](Cc1ccccc1)NC(=O)O[C@H]1CO[C@H]2OCC[C@H]21 [Example 24, (2S,3S,5S)-5-(4,6-Dimethyl-benzimidazol-5-yloxy-acetyl)amino-2-((3R,3aS,6aR)-bis-tetrahydrofuran-3-yl-oxycarbonyl)amino-1,6-diphenyl-3-hydroxyhexane] | 80 | 114 | > 100000 | – |
| Cc1cc2[nH]c(=O)[nH]c2c(C)c1OCC(=O)N[C@@H](Cc1ccccc1)C[C@H](O)[C@H](Cc1ccccc1)NC(=O)O[C@H]1CO[C@H]2OCC[C@H]21 [Example 25, (2S,3S,5S)-5-(4,6-Dimethyl-benzimidazolinon-5-yloxy-acetyl)amino-2-((3R,3aS,6aR)-bis-tetrahydrofuran-3-yl-oxycarbonyl)amino-1,6-diphenyl-3-hydroxyhexane] | 85 | 972 | > 100000 | – |
| Cc1cc2ncoc2c(C)c1OCC(=O)N[C@@H](Cc1ccccc1)C[C@H](O)[C@H](Cc1ccccc1)NC(=O)O[C@H]1CO[C@H]2OCC[C@H]21 [Example 26, (2S,3S,5S)-5-(4,6-Dimethyl-benzoxazol-5-yloxy-acetyl)amino-2-((3R,3aS,6aR)-bis-tetrahydrofuran-3-yl-oxycarbonyl)amino-1,6-diphenyl-3-hydroxyhexane] | 80 | 157 | 29800 | – |
| Cc1cccc(C)c1OCC(=O)N[C@@H](Cc1ccccc1)[C@@H](O)C[C@H](Cc1ccccc1)NC(=O)O[C@@H]1CCSC1(C)C [Example 32, (2S,3S,5S)-2-(2,6-Dimethylphenoxyacetyl)amino-5-(3R-2,2-dimethyl-tetrahydrothienyloxycarbonyl)amino-1,6-diphenyl-3-hydroxyhexane] | 50 | 1180 | > 100000 | – |
| Cc1cccc(C)c1OCC(=O)N[C@@H](Cc1ccccc1)[C@@H](O)C[C@H](Cc1ccccc1)NC(=O)O[C@@H]1CCS(=O)(=O)C1(C)C [Example 33, (2S,3S,5S)-2-(2,6-Dimethylphenoxyacetyl)amino-5-(3R-2,2-dimethyl-1,1-dioxy-tetrahydrothienyloxycarbonyl)amino-1,6-diphenyl-3-hydroxyhexane] | 84 | 442 | 18300 | – |
| CC(C)c1nc(CN(C)C(=O)N[C@H](C(=O)N[C@@H](Cc2ccccc2)C[C@H](O)[C@H](Cc2ccccc2)NC(=O)OC2COC3OCCC23)C(C)C)cs1 (stereo partly drawn) [Example 34, (2S,3S,5S)-5-(N-(N-((N-Methyl-N-((2-isopropyl-4-thiazolyl)methyl)amino)carbonyl)-L-valinyl)amino)-2-((3R,3aS,6aR), (3S,3aR,6aS)-bis-tetrahydrofuran-3-yl-oxycarbonyl)amino-1,6-diphenyl-3-hydroxyhexane] | 52 | 9 | 56300 | – |
| O=C(N[C@@H](Cc1ccccc1)[C@@H](O)C[C@H](Cc1ccccc1)NC(=O)OC1COC2OCCC12)OCc1cncs1 (stereo partly drawn) [Example 35, (2S,3S,5S)-2-((5-Thiazolyl)methoxycarbonyl)amino-5-((3R,3aS,6aR), (3S,3aR,6aS)-bis-tetrahydrofuran-3-yl-oxycarbonyl)amino-1,6-diphenyl-3-hydroxyhexane] | 52 | 428 | > 100000 | – |
| CC(C)c1nc(COC(=O)N[C@@H](C(=O)N[C@@H](Cc2ccccc2)C[C@H](O)[C@H](Cc2ccccc2)NC(=O)OC2COC3OCCC23)C(C)C)cs1 (stereo partly drawn) [Example 36] | 66 | 30 | 27800 | – |
| CC(C)c1nc(COC(=O)N[C@H](C(=O)N[C@@H](Cc2ccccc2)C[C@H](O)[C@H](Cc2ccccc2)NC(=O)OC2COC3OCCC23)C(C)C)cs1 (stereo partly drawn) [Example 37] | 83 | 14 | > 100000 | – |
| O=C(N[C@@H](Cc1ccccc1)[C@@H](O)C[C@H](Cc1ccccc1)NC(=O)O[C@@H]1CO[C@@H]2OCC[C@@H]21)OCc1cncs1 [Example 38, (2S,3S,5S)-2-((5-Thiazolyl)methoxycarbonyl)amino-5-((3S,3aR,6aS)-bis-tetrahydrofuran-3-yl-oxycarbonyl)amino-1,6-diphenyl-3-hydroxyhexane] | 53 | 140 | > 100000 | – |
| CC(C)c1nc(CN(C)C(=O)N[C@@H](C(=O)N[C@@H](Cc2ccccc2)C[C@H](O)[C@H](Cc2ccccc2)NC(=O)OC2COC3OCCC23)C(C)C)cs1 (stereo partly drawn) [Example 39, (2S,3S,5S)-5-(N-(N-((N-Methyl-N-((2-isopropyl-4-thiazolyl)methyl)amino)carbonyl)-D-valinyl)amino)-2-((3R,3aS,6aR), (3S,3aR,6aS)-bis-tetrahydrofuran-3-yl-oxycarbonyl)amino-1,6-diphenyl-3-hydroxyhexane] | 66 | 55 | 56200 | – |
| O=C(N[C@@H](Cc1ccccc1)C[C@H](O)[C@H](Cc1ccccc1)NC(=O)OC1COC2OCCC12)OCc1cncs1 (stereo partly drawn) [Example 40, (2S,3S,5S)-5-((5-Thiazolyl)methoxycarbonyl)amino-2-((3R,3aS,6aR), (3S,3aR,6aS)-bis-tetrahydrofuran-3-yl-oxycarbonyl)amino-1,6-diphenyl-3-hydroxyhexane] | 43 | 502 | > 100000 | – |
| O=C(N[C@@H](Cc1ccccc1)C[C@H](O)[C@H](Cc1ccccc1)NC(=O)OC1COC2OCCC12)OC1COC2OCCC12 (stereo partly drawn) [Example 41, (2S,3S,5S)-2,5-((3R,3aS,6aR)-bis-Tetrahydrofuran-3-yl-oxycarbonyl)amino-1,6-diphenyl-3-hydroxyhexane] | 53 | 43 | > 100000 | – |
